Test results from publication PMC11045757, “Group 3 medulloblastoma transcriptional networks collapse under domain specific EP300/CBP inhibition” (Nature Communications, 2024).

Key:
BRPF1 = molecular target: T1, BRPF1 (Homo sapiens, UniProt P55201); assay: BromoScan profiling (DiscoverX); type: binding; conditions: read-out: Percent Control BRPF1
T1 construct: purchased Eurofins DiscoverX (BROMOscan)

BRD4(1) = molecular target: T2, BRD4(1) (Homo sapiens, UniProt O60885); assay: BromoScan profiling (DiscoverX); type: binding; conditions: read-out: Percent Control BRD4(1)
T2 construct: BRD4(1); purchased Eurofins DiscoverX (BROMOscan)

ATAD2A = molecular target: T3, ATAD2A (Homo sapiens, UniProt Q6PL18); assay: BromoScan profiling (DiscoverX); type: binding; conditions: read-out: Percent Control ATAD2A
T3 construct: purchased Eurofins DiscoverX (BROMOscan)

TRIM24(PHD,Bromo.) = molecular target: T4, TRIM24(PHD,Bromo.) (Homo sapiens, UniProt O15164); assay: BromoScan profiling (DiscoverX); type: binding; conditions: read-out: Percent Control TRIM24(PHD,Bromo.)
T4 construct: purchased Eurofins DiscoverX (BROMOscan)

CECR2 = molecular target: T5, CECR2 (Homo sapiens, UniProt Q9BXF3); assay: BromoScan profiling (DiscoverX); type: binding; conditions: read-out: Percent Control CECR2
T5 construct: purchased Eurofins DiscoverX (BROMOscan)

PBRM1(2) = molecular target: T6, PBRM1(2) (Homo sapiens, UniProt Q86U86); assay: BromoScan profiling (DiscoverX); type: binding; conditions: read-out: Percent Control PBRM1(2)
T6 construct: PBRM1(2); purchased Eurofins DiscoverX (BROMOscan)

[1] = Plasma pharmacokinetics after i.p. dosing; type: in vivo, female CD-1 nude mice; conditions: 16 and 24 hrs, below lower limit of quantitation
Procedure: All animal studies were approved by the St. Jude Children’s Research Hospital Animal Care and Use Committee and performed in accordance with best practices outlined by the NIH Office of Laboratory Animal Welfare. […] Three survival blood samples were obtained from each mouse via retro-orbital plexus using 70 μL glass microhematocrit capillary tubes (Fisher), and a fourth final sample by cardiac puncture immediately following the third survival sample, all using K-EDTA as anticoagulant. Samples were obtained at various times up to 24 h post-dose, immediately processed to plasma, and stored at −80 °C until analysis. […]
Brain samples were homogenized using a FastPrep-24 system (MP Biomedicals, Santa Ana, CA), and stored at -80 °C until analysis by qualified liquid chromatography–tandem mass spectrometry (LC-MS/MS) assay. […] Plasma and brain homogenate samples were precipitated, and extracted supernatant was analyzed on an AB Sciex ExionLC high performance liquid chromatography system via an AB Sciex ExionLC autosampler. For quantitation, a linear model (1/X^2 weighting) fit the plasma and brian homogenate calibrators across the 1 to 500 ng/mL range, with a correlation coefficient (R) of ≥0.9967. The lower limit of quantitation (LLOQ), defined as a peak area signal-to-noise ratio of 5 or greater verses a matrix blank with internal standard, was 1 ng/mL in plasma and 6 ng/mL in brain. […]

[2] = Brain tissue concentration after i.p. dosing (LC-MS/MS); type: in vivo, female CD-1 nude mice; conditions: below lower limit of quantitation
Procedure: One of the most aggressive MB tumor subtypes are Group 3 medulloblastoma (G3MB), which are commonly characterized by overexpression of the driver oncogene c-MYC due to gene amplification in 17% of cases[40],[42],[43]. These tumors are associated with poor patient survival. […] We sacrificed treated mice at three timepoints after dosing (8, 16, 24 h) and perfused the murine vasculature with PBS to eliminate contaminating blood from the brain.
All animal studies were approved by the St. Jude Children’s Research Hospital Animal Care and Use Committee and performed in accordance with best practices outlined by the NIH Office of Laboratory Animal Welfare. […]
Brain samples were homogenized using a FastPrep-24 system (MP Biomedicals, Santa Ana, CA), and stored at -80 °C until analysis by qualified liquid chromatography–tandem mass spectrometry (LC-MS/MS) assay. […] Plasma and brain homogenate samples were precipitated, and extracted supernatant was analyzed on an AB Sciex ExionLC high performance liquid chromatography system via an AB Sciex ExionLC autosampler. For quantitation, a linear model (1/X^2 weighting) fit the plasma and brian homogenate calibrators across the 1 to 500 ng/mL range, with a correlation coefficient (R) of ≥0.9967. […] No matrix effects, ion enhancement or suppression, were detected in blank CD-1 mouse plasma or NSG brain homogenates.

BRD9 = molecular target: T7, BRD9 (Homo sapiens, UniProt Q9H8M2); assay: BromoScan profiling (DiscoverX); type: binding; conditions: read-out: Percent Control BRD9
T7 construct: purchased Eurofins DiscoverX (BROMOscan)

EP300 = molecular target: T8, EP300 (Homo sapiens, UniProt Q09472); assay: BromoScan profiling (DiscoverX); type: binding; conditions: read-out: Percent Control EP300
T8 construct: purchased Eurofins DiscoverX (BROMOscan)

BAZ2B = molecular target: T9, BAZ2B (Homo sapiens, UniProt Q9UIF8); assay: BromoScan profiling (DiscoverX); type: binding; conditions: read-out: Percent Control BAZ2B
T9 construct: purchased Eurofins DiscoverX (BROMOscan)

BRD3(2) = molecular target: T10, BRD3(2) (Homo sapiens, UniProt Q15059); assay: BromoScan profiling (DiscoverX); type: binding; conditions: read-out: Percent Control BRD3(2)
T10 construct: BRD3(2); purchased Eurofins DiscoverX (BROMOscan)

BRD1 = molecular target: T11, BRD1 (Homo sapiens, UniProt O95696); assay: BromoScan profiling (DiscoverX); type: binding; conditions: read-out: Percent Control BRD1
T11 construct: purchased Eurofins DiscoverX (BROMOscan)

PBRM1(5) = molecular target: T12, PBRM1(5) (Homo sapiens, UniProt Q86U86); assay: BromoScan profiling (DiscoverX); type: binding; conditions: read-out: Percent Control PBRM1(5)
T12 construct: PBRM1(5); purchased Eurofins DiscoverX (BROMOscan)

BRDT(1) = molecular target: T13, BRDT(1) (Homo sapiens, UniProt Q58F21); assay: BromoScan profiling (DiscoverX); type: binding; conditions: read-out: Percent Control BRDT(1)
T13 construct: BRDT(1); purchased Eurofins DiscoverX (BROMOscan)

BRPF3 = molecular target: T14, BRPF3 (Homo sapiens, UniProt Q9ULD4); assay: BromoScan profiling (DiscoverX); type: binding; conditions: read-out: Percent Control BRPF3
T14 construct: purchased Eurofins DiscoverX (BROMOscan)

TAF1(2) = molecular target: T15, TAF1(2) (Homo sapiens, UniProt P21675); assay: BromoScan profiling (DiscoverX); type: binding; conditions: read-out: Percent Control TAF1(2)
T15 construct: TAF1(2); purchased Eurofins DiscoverX (BROMOscan)

TRIM33(PHD,Bromo.) = assay: BromoScan profiling (DiscoverX); type: binding, human; conditions: 1 µM

T5 sequence (Q9BXF3 whole entry): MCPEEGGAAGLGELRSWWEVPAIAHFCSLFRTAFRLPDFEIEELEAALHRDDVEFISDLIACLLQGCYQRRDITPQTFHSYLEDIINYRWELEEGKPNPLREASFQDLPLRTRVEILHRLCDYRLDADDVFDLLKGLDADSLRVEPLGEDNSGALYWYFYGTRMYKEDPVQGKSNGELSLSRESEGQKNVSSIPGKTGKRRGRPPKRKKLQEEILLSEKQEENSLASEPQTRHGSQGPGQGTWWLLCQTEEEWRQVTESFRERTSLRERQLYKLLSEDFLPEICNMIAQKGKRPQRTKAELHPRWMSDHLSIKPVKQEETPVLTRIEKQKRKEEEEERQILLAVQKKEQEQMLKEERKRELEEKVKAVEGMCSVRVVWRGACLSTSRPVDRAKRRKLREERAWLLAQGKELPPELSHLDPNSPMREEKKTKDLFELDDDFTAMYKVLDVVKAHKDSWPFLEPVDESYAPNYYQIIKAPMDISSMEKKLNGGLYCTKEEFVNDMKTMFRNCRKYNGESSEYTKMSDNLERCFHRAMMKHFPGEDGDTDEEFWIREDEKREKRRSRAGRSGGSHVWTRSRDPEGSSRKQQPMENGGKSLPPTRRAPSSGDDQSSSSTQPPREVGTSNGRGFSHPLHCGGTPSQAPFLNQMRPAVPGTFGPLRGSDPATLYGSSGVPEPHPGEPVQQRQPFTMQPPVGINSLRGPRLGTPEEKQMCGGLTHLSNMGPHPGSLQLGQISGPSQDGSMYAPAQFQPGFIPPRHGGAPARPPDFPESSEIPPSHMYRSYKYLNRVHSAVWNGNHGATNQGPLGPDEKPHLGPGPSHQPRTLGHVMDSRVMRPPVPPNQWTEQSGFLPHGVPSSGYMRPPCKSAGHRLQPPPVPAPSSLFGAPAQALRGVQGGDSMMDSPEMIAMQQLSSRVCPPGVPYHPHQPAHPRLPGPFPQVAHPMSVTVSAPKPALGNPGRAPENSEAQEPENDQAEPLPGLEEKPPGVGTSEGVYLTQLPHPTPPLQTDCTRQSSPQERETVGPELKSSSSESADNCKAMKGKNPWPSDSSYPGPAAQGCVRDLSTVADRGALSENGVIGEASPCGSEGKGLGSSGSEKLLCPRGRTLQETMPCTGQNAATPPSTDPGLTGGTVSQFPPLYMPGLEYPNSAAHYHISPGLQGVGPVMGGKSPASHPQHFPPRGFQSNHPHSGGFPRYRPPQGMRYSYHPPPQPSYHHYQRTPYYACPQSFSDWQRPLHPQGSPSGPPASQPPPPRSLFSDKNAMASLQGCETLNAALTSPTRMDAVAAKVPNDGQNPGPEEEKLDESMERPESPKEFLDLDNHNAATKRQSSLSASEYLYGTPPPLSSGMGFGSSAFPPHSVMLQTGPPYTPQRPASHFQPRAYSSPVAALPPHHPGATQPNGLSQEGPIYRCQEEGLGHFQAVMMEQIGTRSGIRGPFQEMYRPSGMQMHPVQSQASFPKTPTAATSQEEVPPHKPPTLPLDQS
T15 sequence (P21675 1519-1656 limits assumed): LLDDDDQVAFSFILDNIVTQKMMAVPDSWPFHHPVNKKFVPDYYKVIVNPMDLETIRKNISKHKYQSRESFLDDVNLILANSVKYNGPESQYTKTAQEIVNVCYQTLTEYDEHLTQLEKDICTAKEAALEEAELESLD
T7 sequence (Q9H8M2 whole entry): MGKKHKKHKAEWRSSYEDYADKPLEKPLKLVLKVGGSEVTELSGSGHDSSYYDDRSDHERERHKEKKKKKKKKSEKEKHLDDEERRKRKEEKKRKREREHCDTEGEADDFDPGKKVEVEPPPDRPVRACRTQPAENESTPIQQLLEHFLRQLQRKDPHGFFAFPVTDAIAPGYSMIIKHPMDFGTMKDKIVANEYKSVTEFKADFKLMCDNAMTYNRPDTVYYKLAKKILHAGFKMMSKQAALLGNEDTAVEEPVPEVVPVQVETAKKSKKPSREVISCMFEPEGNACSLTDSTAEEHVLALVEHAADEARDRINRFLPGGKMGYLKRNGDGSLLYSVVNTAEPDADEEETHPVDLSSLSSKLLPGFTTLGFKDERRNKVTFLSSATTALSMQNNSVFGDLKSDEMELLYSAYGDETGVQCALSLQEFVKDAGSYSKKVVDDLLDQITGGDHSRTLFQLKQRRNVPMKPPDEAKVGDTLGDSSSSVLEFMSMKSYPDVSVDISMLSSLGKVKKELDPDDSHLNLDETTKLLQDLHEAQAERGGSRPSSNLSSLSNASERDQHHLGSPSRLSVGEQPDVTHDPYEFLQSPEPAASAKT
T3 sequence (Q6PL18 whole entry): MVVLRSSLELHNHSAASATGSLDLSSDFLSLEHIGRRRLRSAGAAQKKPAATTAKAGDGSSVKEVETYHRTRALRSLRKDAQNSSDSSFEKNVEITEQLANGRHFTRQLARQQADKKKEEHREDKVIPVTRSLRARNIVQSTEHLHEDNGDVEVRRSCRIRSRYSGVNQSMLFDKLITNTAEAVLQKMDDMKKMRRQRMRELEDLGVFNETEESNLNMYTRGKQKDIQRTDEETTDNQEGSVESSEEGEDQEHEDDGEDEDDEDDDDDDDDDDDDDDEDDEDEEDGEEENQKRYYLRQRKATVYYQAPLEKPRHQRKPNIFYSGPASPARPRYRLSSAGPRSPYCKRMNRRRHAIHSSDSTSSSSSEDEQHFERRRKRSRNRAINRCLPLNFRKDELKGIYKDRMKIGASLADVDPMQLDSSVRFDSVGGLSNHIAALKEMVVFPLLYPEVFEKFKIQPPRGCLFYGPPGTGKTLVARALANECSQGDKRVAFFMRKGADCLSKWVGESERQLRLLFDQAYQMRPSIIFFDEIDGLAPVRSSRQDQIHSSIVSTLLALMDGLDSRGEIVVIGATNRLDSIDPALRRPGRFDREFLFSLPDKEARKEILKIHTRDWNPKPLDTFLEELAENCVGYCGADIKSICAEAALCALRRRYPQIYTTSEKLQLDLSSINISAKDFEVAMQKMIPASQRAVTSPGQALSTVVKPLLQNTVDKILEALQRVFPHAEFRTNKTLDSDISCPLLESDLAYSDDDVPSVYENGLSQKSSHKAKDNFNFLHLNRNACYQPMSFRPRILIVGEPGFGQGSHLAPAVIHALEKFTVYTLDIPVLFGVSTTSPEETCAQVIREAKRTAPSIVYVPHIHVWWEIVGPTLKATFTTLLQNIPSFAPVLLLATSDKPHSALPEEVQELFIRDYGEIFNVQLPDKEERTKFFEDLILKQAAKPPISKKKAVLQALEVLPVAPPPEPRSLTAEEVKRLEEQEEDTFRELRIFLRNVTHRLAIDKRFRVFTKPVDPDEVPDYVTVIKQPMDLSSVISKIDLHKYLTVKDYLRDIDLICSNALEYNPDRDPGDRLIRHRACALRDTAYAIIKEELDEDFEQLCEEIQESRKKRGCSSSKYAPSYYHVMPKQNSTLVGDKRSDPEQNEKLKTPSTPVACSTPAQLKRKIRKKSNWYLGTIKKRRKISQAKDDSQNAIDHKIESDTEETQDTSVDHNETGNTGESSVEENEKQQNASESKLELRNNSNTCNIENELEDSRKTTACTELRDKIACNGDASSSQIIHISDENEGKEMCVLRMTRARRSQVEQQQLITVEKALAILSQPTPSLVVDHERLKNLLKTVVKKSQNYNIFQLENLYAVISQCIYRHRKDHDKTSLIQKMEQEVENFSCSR
T12 sequence (Q86U86 645-766 limits assumed): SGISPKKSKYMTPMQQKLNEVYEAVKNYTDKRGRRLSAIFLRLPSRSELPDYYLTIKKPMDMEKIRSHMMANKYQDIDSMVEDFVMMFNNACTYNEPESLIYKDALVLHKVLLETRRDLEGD
T10 sequence (Q15059 306-416 limits assumed): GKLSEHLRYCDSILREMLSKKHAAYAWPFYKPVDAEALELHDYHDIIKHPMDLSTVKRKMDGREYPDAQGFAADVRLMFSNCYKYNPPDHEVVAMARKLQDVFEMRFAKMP
T1 sequence (P55201 whole entry): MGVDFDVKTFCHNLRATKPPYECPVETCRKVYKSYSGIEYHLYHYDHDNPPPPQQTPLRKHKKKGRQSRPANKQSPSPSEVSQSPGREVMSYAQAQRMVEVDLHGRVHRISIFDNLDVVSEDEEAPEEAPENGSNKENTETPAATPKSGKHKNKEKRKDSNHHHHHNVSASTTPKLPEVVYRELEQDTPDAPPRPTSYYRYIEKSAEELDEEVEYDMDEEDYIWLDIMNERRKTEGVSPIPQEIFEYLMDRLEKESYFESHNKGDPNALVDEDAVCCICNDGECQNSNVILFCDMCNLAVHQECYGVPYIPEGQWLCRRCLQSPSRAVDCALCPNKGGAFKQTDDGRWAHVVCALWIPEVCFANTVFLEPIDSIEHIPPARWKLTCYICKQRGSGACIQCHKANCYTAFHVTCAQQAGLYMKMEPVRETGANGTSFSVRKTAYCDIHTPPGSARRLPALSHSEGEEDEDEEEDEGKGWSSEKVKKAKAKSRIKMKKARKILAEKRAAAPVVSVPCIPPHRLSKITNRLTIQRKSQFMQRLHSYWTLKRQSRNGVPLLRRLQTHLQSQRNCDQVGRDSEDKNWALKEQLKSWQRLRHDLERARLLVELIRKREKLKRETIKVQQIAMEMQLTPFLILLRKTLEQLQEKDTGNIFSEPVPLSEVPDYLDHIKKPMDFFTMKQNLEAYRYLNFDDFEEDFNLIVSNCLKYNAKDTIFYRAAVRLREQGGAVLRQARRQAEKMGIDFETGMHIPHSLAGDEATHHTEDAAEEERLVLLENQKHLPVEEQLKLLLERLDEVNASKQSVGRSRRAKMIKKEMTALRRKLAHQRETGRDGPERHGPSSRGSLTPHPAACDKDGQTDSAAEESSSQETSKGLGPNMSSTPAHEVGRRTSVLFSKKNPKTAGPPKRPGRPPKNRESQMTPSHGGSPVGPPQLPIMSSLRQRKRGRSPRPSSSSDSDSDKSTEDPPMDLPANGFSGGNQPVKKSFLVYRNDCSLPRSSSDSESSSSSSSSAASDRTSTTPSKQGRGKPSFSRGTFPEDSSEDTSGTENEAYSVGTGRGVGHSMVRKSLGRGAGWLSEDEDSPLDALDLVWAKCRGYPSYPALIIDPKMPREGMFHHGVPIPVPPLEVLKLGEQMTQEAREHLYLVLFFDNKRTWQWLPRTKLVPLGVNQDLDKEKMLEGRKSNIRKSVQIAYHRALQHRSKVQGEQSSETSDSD

**Q.** Which remaining binding at 1 µM (BRPF1) does the source give for `CO[C@H]1CC[C@H](n2c([C@@H]3CCCC(=O)N3c3ccc(F)c(F)c3)nc3cc(-c4c(C)noc4C)ccc32)CC1` [CCS1477] here?
**A.** The remaining binding at 1 µM was 31%.

**Q.** What about the remaining binding at 1 µM (BRD4(1)) of the same molecule?
**A.** Its remaining binding at 1 µM is 3.3%.

**Q.** What about the remaining binding at 1 µM (ATAD2A) of the same molecule?
**A.** Its remaining binding at 1 µM is 100%.

**Q.** And the remaining binding at 1 µM (TRIM24(PHD,Bromo.))?
**A.** The remaining binding at 1 µM was 54%.

**Q.** What about the remaining binding at 1 µM (CECR2) of the same molecule?
**A.** The remaining binding at 1 µM was 78%.

**Q.** And the remaining binding at 1 µM (PBRM1(2))?
**A.** The remaining binding at 1 µM was 78%.

**Q.** And the plasma concentration [1]?
**A.** Its plasma concentration is less than 1 ng/mL.

**Q.** What about the brain tissue concentration ([2]; 25 or 50 mg/kg i.p., 8, 16, 24 h) of the same molecule?
**A.** Its brain tissue concentration is less than 6 ng/mL.

**Q.** And the brain concentration ([2]; i.p., 16 and 24 hrs)?
**A.** The brain concentration was less than 6 ng/mL.

**Q.** What about the remaining binding at 1 µM (BRD9) of the same molecule?
**A.** Its remaining binding at 1 µM is 39%.

**Q.** What about the remaining binding at 1 µM (EP300) of the same molecule?
**A.** Its remaining binding at 1 µM is 1.6%.

**Q.** What about the remaining binding at 1 µM (BAZ2B) of the same molecule?
**A.** Its remaining binding at 1 µM is 82%.

**Q.** What about the remaining binding at 1 µM (BRD3(2)) of the same molecule?
**A.** Its remaining binding at 1 µM is 66%.

**Q.** What about the remaining binding at 1 µM (BRD1) of the same molecule?
**A.** Its remaining binding at 1 µM is 88%.

**Q.** And the remaining binding at 1 µM (PBRM1(5))?
**A.** The remaining binding at 1 µM was 71%.

**Q.** What about the remaining binding at 1 µM (BRDT(1)) of the same molecule?
**A.** Its remaining binding at 1 µM is 14%.

**Q.** What about the remaining binding at 1 µM (BRPF3) of the same molecule?
**A.** The remaining binding at 1 µM was 75%.

**Q.** And the remaining binding at 1 µM (TAF1(2))?
**A.** Its remaining binding at 1 µM is 69%.

**Q.** What about the “Percent Control TRIM33(PHD,Bromo.)” value (TRIM33(PHD,Bromo.)) of the same molecule?
**A.** The value was 90.
